Test results published in patent publication US7563621B2, “Absorbing organic reagents into diagnostic test devices by formation of amine salt complexes” (Siemens Healhcare Diagnostics Inc, priority 2003, dated 2009).
Values joined by “and” are separate entries in the source; they are usually repeats but may differ in a detail not shown here. Equal values may be shown once. Where a name gives a salt, the structure may show the parent alone. One block for each compound: values may come before it.

What was measured:
[1] = Butanol/water partitioning of dye salts (Example 2); conditions: for Absorbance of Base in Butanol: butanol layer; for Partition Ratio of Butanol Absorbance to Water Absorbance: corrected by intensity factor; for Absorbance of Base in Water: water layer
Procedure: The five dye solutions were then treated with 1 equivalent of each base listed in Tables 1-5 (i.e., sodium hydroxide, TRIS, and triethylamine) to form salt solutions (i.e., sodium salt solutions, TRIS salt solutions, and triethylamine salt solutions respectively).
A 50 μL portion of each salt solution was then mixed with 950 μL water and 1000 μL butanol. […] Where necessary to deal with lingering interface phases, the samples were centrifuged.
Tests were then performed on the respective salt solutions to determine whether the salts of the respective dyes dissolved preferentially in butanol (a more lipophilic solvent) or water (a less lipophilic solvent). […] Spectroscopy versus the butanol blank or the water blank was done as 50 μL upper (butanol) or lower (aqueous) phase plus 950 μL corresponding solvent. All absorbances were blanked on solvent in a quartz cuvette and were baseline corrected at an absorbance of 900 nm before subsequent calculations to correct for cuvette placement, dust, etc. All absorbances were then measured at the wavelengths noted below.
Before determining the butanol to water absorbance levels, the absorbance of the solute in butanol was corrected for solvent dependent shifts in wavelength maximum and intensity based on the reference spectra of known gravimetric quantities of the dye salts in butanol and water. For such cases, the partition ratio of butanol absorbance to water absorbance was calculated using the following formula: Partition Ratio=Sample Absorbance in Butanol×Intensity Factor/Sample Absorbance in Water where the intensity factor was calculated using the following formula: Intensity Factor=Reference Sample Absorbance at λmax in water/Reference Sample Absorbance at λmax in butanol The intensity factor adjusts for those cases where the same concentration of dye in the two different solvents produced two different absorbances.

human IgG = experiment: Automated protein assay with pyrogallol red salts, 74 μM (Example 6); conditions: Series #1 and #2; for average net absorbance at 600 nm after subtracting PBS sample reaction result: IgG 25 mg/dL, 10 minutes, 37° C, 900 nm baseline subtracted; for Percent Detection as Percentage of HSA Detection: IgG
Procedure: (§1) The dilutor was programmed for reactions of 180 μL reagent+40 μL sample. […] The samples were phosphate buffered saline (blank), human serum albumin (HSA) 25 mg/dL, and other proteins (i.e., human IgG, […], and Lambda Light Chain) at 25 mg/dL. Absorbance data were collected on a Biotek, Powerwave X Microplate Absorbance reader using BioTek “KC Jr” software to determine the relative detection of the different proteins (i.e., HSA, human IgG, […], and Lambda Light Chain) using salts of pyrogallol red. Two sets of replicates of the different proteins were run. […] The protein response was determined by subtracting the phosphate buffered saline sample reaction result from the protein reaction result. […] The results for protein equivalence of the non-albumin proteins were expressed as a percentage of the protein colorimetric response to HSA as shown in Table 11 below.

Tamm-Horsfall = Tamm-Horsfall (Homo sapiens, UniProt P07911); experiment: as above; conditions: Series #1 and #2; for average net absorbance at 600 nm after subtracting PBS sample reaction result: Tamm-Horsfall 25 mg/dL, 10 minutes, 37° C, 900 nm baseline subtracted; for Percent Detection as Percentage of HSA Detection: Tamm-Horsfall
Procedure: as §1

Lambda Light Chain = experiment: as above; conditions: Series #1 and #2; for average net absorbance at 600 nm after subtracting PBS sample reaction result: Lambda Light Chain 25 mg/dL, 10 minutes, 37° C, 900 nm baseline subtracted; for Percent Detection as Percentage of HSA Detection: Lambda Light Chain
Procedure: as §1

[2] = biological target: human serum albumin (HSA) (Homo sapiens, UniProt P02768); experiment: as above; conditions: HSA 25 mg/dL; 10 minutes, 37° C; 900 nm baseline subtracted; Series #1 and #2
Procedure: The dilutor was programmed for reactions of 180 μL reagent+40 μL sample. […] The samples were phosphate buffered saline (blank), human serum albumin (HSA) 25 mg/dL, and other proteins (i.e., human IgG, […], and Lambda Light Chain) at 25 mg/dL. Absorbance data were collected on a Biotek, Powerwave X Microplate Absorbance reader using BioTek “KC Jr” software to determine the relative detection of the different proteins (i.e., HSA, human IgG, […], and Lambda Light Chain) using salts of pyrogallol red. Two sets of replicates of the different proteins were run. […] The protein response was determined by subtracting the phosphate buffered saline sample reaction result from the protein reaction result.

[3] = Butanol/water partitioning of pyrogallol red dye salts (Example 3); assay type: physicochemical; conditions: 276 nm; for Absorbance of Dye Salt in Butanol: butanol layer; for Absorbance of Dye Salt in Water: water layer
Procedure: Extractions were then performed in Mixxor extractors.

[4] = 8-anilino-1-sulfonic acid salts
[5] = 8-anilino-1-sulfonic acid salts, λmax 269 nm
[6] = 8-anilino-1-sulfonic acid salts, reference absorbance in water / in butanol
[7] = 8-anilino-1-sulfonic acid salts, λmax 265 nm
[8] = bromocresol green salts, λmax 630 nm
[9] = bromocresol green salts, reference absorbance in water / in butanol
[10] = bromocresol green salts, λmax 615 nm
[11] = erythrosin salts, reference absorbance in water / in butanol
[12] = rosolic acid salts, aqueous reference saturated with butanol
[13] = rosolic acid salts, λmax 562 nm
[14] = rosolic acid salts, λmax 547 nm, four times less dilute solution measured, absorbance divided by four

Sequence of human serum albumin (HSA) (P02768 25-609): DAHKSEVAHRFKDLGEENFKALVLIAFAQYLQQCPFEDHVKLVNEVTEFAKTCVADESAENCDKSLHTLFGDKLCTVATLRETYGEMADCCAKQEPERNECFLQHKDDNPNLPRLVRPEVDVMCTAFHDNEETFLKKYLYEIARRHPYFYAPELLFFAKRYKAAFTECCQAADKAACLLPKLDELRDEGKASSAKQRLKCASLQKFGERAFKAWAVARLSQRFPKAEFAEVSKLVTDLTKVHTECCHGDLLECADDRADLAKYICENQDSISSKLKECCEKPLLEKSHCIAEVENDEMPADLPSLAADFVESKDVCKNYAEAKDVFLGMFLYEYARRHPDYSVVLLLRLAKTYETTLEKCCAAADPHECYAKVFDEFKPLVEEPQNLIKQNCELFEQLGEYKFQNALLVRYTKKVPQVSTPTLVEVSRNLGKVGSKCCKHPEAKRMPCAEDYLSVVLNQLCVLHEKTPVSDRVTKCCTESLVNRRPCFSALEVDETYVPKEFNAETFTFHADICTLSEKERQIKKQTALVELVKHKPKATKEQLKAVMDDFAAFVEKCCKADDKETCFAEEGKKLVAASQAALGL

Raw Ratio of Butanol Absorbance to Water Absorbance [1, 4]: 2.6
Absorbance of Base in Butanol [1, 5]: 0.129
Partition Ratio of Butanol Absorbance to Water Absorbance [1, 4]: 2.3
Intensity Factor (IF) [1, 6]: 0.89
Absorbance of Base in Water [1, 7]: 0.050
Compound: O=S(=O)(O)c1cccc2cccc(Nc3ccccc3)c12 [8-Anilino-1-Sulfonic Acid, TRIS, 8-anilino-1-sulfonic acid]

Raw Ratio of Butanol Absorbance to Water Absorbance ([1]; bromocresol green salts): 1.8
Absorbance of Base in Butanol [1, 8]: 0.315
Partition Ratio of Butanol Absorbance to Water Absorbance ([1]; bromocresol green salts): 1.9
Intensity Factor (IF) [1, 9]: 1.03
Absorbance of Base in Water [1, 10]: 0.175
Compound: CC1=C(Br)C(=O)C(Br)=C/C1=C(/c1ccccc1S(=O)(=O)O)c1cc(Br)c(O)c(Br)c1C [Bromocresol Green, Sodium Hydroxide, bromocresol green, reference compound]

Raw Ratio of Butanol Absorbance to Water Absorbance ([1]; bromocresol green salts): 2.4
Absorbance of Base in Butanol [1, 8]: 0.237
Partition Ratio of Butanol Absorbance to Water Absorbance ([1]; bromocresol green salts): 6.3
Intensity Factor (IF) [1, 9]: 2.58
Absorbance of Base in Water [1, 10]: 0.097
Compound: CC1=C(Br)C(=O)C(Br)=C/C1=C(/c1ccccc1S(=O)(=O)O)c1cc(Br)c(O)c(Br)c1C [Bromocresol Green, Triethylamine, bromocresol green]

Raw Ratio of Butanol Absorbance to Water Absorbance ([1]; erythrosin salts): 0.40
Absorbance of Base in Butanol ([1]; erythrosin salts, λmax 536 nm): 0.240
Partition Ratio of Butanol Absorbance to Water Absorbance ([1]; erythrosin salts): 0.42
Intensity Factor (IF) [1, 11]: 1.04
Absorbance of Base in Water ([1]; erythrosin salts, λmax 528 nm): 0.596
Compound: O=C(O)c1ccccc1-c1c2cc(I)c(=O)c(I)c-2oc2c(I)c(O)c(I)cc12 [Erythrosin, Triethylamine, erythrosin B]

Compound: O=c1ccc2c(-c3ccccc3S(=O)(=O)O)c3ccc(O)c(O)c3oc-2c1O [Glucamine Pyrogallol Red Salt, pyrogallol red]
average net absorbance at 600 nm after subtracting PBS sample reaction result (human IgG): 0.0318
Percent Detection as Percentage of HSA Detection (human IgG): 51%
average net absorbance at 600 nm after subtracting PBS sample reaction result (Tamm-Horsfall): 0.0123
Percent Detection as Percentage of HSA Detection (Tamm-Horsfall): 20%
average net absorbance at 600 nm after subtracting PBS sample reaction result (Lambda Light Chain): 0.0088
Percent Detection as Percentage of HSA Detection (Lambda Light Chain): 14%
average net absorbance at 600 nm after subtracting PBS sample reaction result [2]: 0.0618
Ratio of Butanol Absorbance to Water Absorbance ([3]; Glucamine): 0.09
Absorbance of Dye Salt in Butanol ([3]; Glucamine): 0.030
Absorbance of Dye Salt in Water ([3]; Glucamine): 0.328

Raw Ratio of Butanol Absorbance to Water Absorbance [1, 4]: 1.9
Absorbance of Base in Butanol [1, 5]: 0.121
Partition Ratio of Butanol Absorbance to Water Absorbance [1, 4]: 1.8
Intensity Factor (IF) [1, 6]: 0.98
Absorbance of Base in Water [1, 7]: 0.065
Compound: O=S(=O)(O)c1cccc2cccc(Nc3ccccc3)c12 [8-Anilino-1-Sulfonic Acid, Sodium Hydroxide] [reference compound]

Compound: pyrogallol red [Glucamine Pyrogallol Red Salt]
Percent Detection as Percentage of HSA Detection (Lambda Light Chain): 14%

Raw Ratio of Butanol Absorbance to Water Absorbance ([1]; erythrosin salts): 0.41
Absorbance of Base in Butanol ([1]; erythrosin salts, λmax 536 nm): 0.237
Partition Ratio of Butanol Absorbance to Water Absorbance ([1]; erythrosin salts): 0.38
Intensity Factor (IF) [1, 11]: 0.93
Absorbance of Base in Water ([1]; erythrosin salts, λmax 528 nm): 0.574
Compound: O=C(O)c1ccccc1-c1c2cc(I)c(=O)c(I)c-2oc2c(I)c(O)c(I)cc12 [Erythrosin, Sodium Hydroxide, erythrosin B, reference compound]

Compound: O=c1ccc2c(-c3ccccc3S(=O)(=O)O)c3ccc(O)c(O)c3oc-2c1O [TRIS Pyrogallol Red Salt, pyrogallol red]
average net absorbance at 600 nm after subtracting PBS sample reaction result (human IgG): 0.0410
Percent Detection as Percentage of HSA Detection (human IgG): 55%
average net absorbance at 600 nm after subtracting PBS sample reaction result (Tamm-Horsfall): 0.0175
Percent Detection as Percentage of HSA Detection (Tamm-Horsfall): 23%
average net absorbance at 600 nm after subtracting PBS sample reaction result (Lambda Light Chain): 0.0030
Percent Detection as Percentage of HSA Detection (Lambda Light Chain): 4%
average net absorbance at 600 nm after subtracting PBS sample reaction result [2]: 0.0750
Ratio of Butanol Absorbance to Water Absorbance ([3]; TRIS): 0.13
Absorbance of Dye Salt in Butanol ([3]; TRIS): 0.041
Absorbance of Dye Salt in Water ([3]; TRIS): 0.326

Compound: O=c1ccc2c(-c3ccccc3S(=O)(=O)O)c3ccc(O)c(O)c3oc-2c1O [Triethanolamine Salt, pyrogallol red]
Ratio of Butanol Absorbance to Water Absorbance ([3]; Triethanolamine): 0.15
Absorbance of Dye Salt in Butanol ([3]; Triethanolamine): 0.044
Absorbance of Dye Salt in Water ([3]; Triethanolamine): 0.296

Raw Ratio of Butanol Absorbance to Water Absorbance ([1]; rosolic acid salts): 17
Intensity Factor (IF) [1, 12]: 1.07
Absorbance of Base in Butanol [1, 13]: 0.055
Partition Ratio of Butanol Absorbance to Water Absorbance ([1]; rosolic acid salts): 18
Absorbance of Base in Water [1, 14]: 0.003
Compound: O=C1C=CC(=C(c2ccc(O)cc2)c2ccc(O)cc2)C=C1 [Rosolic Acid, TRIS, rosolic acid]

Compound: pyrogallol red [Triethylamine Pyrogallol Red Salt]
Percent Detection as Percentage of HSA Detection (Lambda Light Chain; listed as triethylammonium): 3%

Compound: O=c1ccc2c(-c3ccccc3S(=O)(=O)O)c3ccc(O)c(O)c3oc-2c1O [Triethylamine Pyrogallol Red Salt, pyrogallol red]
average net absorbance at 600 nm after subtracting PBS sample reaction result (human IgG): 0.0285 and 0.0284
Percent Detection as Percentage of HSA Detection (human IgG): 48% and 51%
average net absorbance at 600 nm after subtracting PBS sample reaction result (Tamm-Horsfall): 0.0135 and 0.0109
Percent Detection as Percentage of HSA Detection (Tamm-Horsfall): 22% and 19%
Percent Detection as Percentage of HSA Detection (Lambda Light Chain): 3% and 9%
average net absorbance at 600 nm after subtracting PBS sample reaction result [2]: 0.0559 and 0.0600
Ratio of Butanol Absorbance to Water Absorbance ([3]; Triethylamine): 0.23
Absorbance of Dye Salt in Butanol ([3]; Triethylamine): 0.063
Absorbance of Dye Salt in Water ([3]; Triethylamine): 0.274

Raw Ratio of Butanol Absorbance to Water Absorbance ([1]; rosolic acid salts): 1.7
Intensity Factor (IF) [1, 12]: 0.69
Absorbance of Base in Butanol [1, 13]: 0.147
Partition Ratio of Butanol Absorbance to Water Absorbance ([1]; rosolic acid salts): 1.2
Absorbance of Base in Water [1, 14]: 0.085
Compound: O=C1C=CC(=C(c2ccc(O)cc2)c2ccc(O)cc2)C=C1 [Rosolic Acid, Sodium Hydroxide, rosolic acid, reference compound]

Raw Ratio of Butanol Absorbance to Water Absorbance ([1]; erythrosin salts): 0.31
Absorbance of Base in Butanol ([1]; erythrosin salts, λmax 536 nm): 0.196
Partition Ratio of Butanol Absorbance to Water Absorbance ([1]; erythrosin salts): 0.28
Intensity Factor (IF) [1, 11]: 0.90
Absorbance of Base in Water ([1]; erythrosin salts, λmax 528 nm): 0.631
Compound: O=C(O)c1ccccc1-c1c2cc(I)c(=O)c(I)c-2oc2c(I)c(O)c(I)cc12 [Erythrosin, TRIS, erythrosin B]

Raw Ratio of Butanol Absorbance to Water Absorbance ([1]; rosolic acid salts): 12
Intensity Factor (IF) [1, 12]: 0.94
Absorbance of Base in Butanol [1, 13]: 0.077
Partition Ratio of Butanol Absorbance to Water Absorbance ([1]; rosolic acid salts): 11
Absorbance of Base in Water [1, 14]: 0.006
Compound: O=C1C=CC(=C(c2ccc(O)cc2)c2ccc(O)cc2)C=C1 [Rosolic Acid, Triethylamine, rosolic acid]

Raw Ratio of Butanol Absorbance to Water Absorbance [1, 4]: 3.4
Absorbance of Base in Butanol [1, 5]: 0.156
Partition Ratio of Butanol Absorbance to Water Absorbance [1, 4]: 3.5
Intensity Factor (IF) [1, 6]: 1.01
Absorbance of Base in Water [1, 7]: 0.045
Compound: O=S(=O)(O)c1cccc2cccc(Nc3ccccc3)c12 [8-Anilino-1-Sulfonic Acid, Triethylamine, 8-anilino-1-sulfonic acid]

Raw Ratio of Butanol Absorbance to Water Absorbance ([1]; bromocresol green salts): 1.7
Absorbance of Base in Butanol [1, 8]: 0.250
Partition Ratio of Butanol Absorbance to Water Absorbance ([1]; bromocresol green salts): 4.2
Intensity Factor (IF) [1, 9]: 2.47
Absorbance of Base in Water [1, 10]: 0.146
Compound: CC1=C(Br)C(=O)C(Br)=C/C1=C(/c1ccccc1S(=O)(=O)O)c1cc(Br)c(O)c(Br)c1C [Bromocresol Green, TRIS, bromocresol green]
